What was measured:
[1] = system: plasma binding proteins; test: fraction unbound in 100% plasma, mouse; type: in vitro ADME
From the text: (§1) While the risk of DDIs due to displacement from plasma binding proteins (PPBs) is relatively low, it should be considered for drugs which display a high proportion PPB (fraction unbound (fu)<1%).
(§2) The fu was investigated for 2R,6R-hydroxynorketamine using a 100% plasma from 4 test species.

[2] = system: plasma binding proteins; test: fraction unbound in 100% plasma, rat; type: in vitro ADME
From the text: as §1, §2

[3] = target: CYP2D6 (Homo sapiens, UniProt P10635); test: CYP inhibition assay, CYP2D6; type: in vitro ADME
CYP2D6, sequence (P10635 whole entry): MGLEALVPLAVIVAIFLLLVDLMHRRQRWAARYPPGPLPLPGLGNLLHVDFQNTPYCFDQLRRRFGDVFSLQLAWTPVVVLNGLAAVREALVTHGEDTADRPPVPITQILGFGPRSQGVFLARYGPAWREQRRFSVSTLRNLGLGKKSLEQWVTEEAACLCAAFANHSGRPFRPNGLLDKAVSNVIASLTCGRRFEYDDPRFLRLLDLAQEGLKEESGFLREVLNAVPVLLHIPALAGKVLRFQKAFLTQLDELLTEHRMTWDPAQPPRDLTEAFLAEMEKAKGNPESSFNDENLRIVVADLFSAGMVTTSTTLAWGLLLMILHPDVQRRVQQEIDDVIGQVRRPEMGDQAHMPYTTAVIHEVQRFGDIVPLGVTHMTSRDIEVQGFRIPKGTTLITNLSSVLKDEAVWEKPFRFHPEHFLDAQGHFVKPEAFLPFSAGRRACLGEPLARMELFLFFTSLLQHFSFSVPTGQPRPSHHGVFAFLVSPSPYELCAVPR
From the text: (§3) Cytochrome P450s (CYPs) are a family of enzymes that play a primary role in the metabolism of a wide variety of drugs. 2R,6R-hydroxynorketamine was investigated for its potential to inhibit the action of 7 key CYP enzymes using an inhibition assay measuring reduction in the formation of metabolites compared to control.

[4] = target: 5-HT transporter (Homo sapiens, UniProt P31645); test: binding to 5-HT transporter
5-HT transporter, sequence (P31645 whole entry, species assumed): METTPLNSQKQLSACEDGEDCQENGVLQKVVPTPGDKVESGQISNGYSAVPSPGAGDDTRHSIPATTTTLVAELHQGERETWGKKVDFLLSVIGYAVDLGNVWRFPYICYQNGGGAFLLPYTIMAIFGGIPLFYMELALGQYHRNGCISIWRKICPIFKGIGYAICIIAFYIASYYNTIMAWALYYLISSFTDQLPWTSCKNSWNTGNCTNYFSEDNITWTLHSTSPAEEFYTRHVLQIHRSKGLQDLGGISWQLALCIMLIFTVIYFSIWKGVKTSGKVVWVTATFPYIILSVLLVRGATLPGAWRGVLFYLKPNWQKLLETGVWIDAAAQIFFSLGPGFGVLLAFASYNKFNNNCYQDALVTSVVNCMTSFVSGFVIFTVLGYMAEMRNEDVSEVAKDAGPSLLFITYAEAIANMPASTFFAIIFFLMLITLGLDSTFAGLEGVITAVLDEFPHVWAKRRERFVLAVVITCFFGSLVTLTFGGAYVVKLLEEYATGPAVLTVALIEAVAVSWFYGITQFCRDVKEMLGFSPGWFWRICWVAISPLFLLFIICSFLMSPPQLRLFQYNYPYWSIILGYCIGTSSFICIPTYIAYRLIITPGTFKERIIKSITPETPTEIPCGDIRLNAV
From the text: (§4) 2R,6R-hydroxynorketamine was investigated for binding to monoamine oxidases A and B, monoamine transporters, as well as a variety of 5HT receptors.

[5] = DSC analysis of compatibility with diluents and capsule shells
[6] = target: norepinephrine transporter (Homo sapiens, UniProt P23975); test: binding to norepinephrine transporter
norepinephrine transporter, sequence (P23975 whole entry, species assumed): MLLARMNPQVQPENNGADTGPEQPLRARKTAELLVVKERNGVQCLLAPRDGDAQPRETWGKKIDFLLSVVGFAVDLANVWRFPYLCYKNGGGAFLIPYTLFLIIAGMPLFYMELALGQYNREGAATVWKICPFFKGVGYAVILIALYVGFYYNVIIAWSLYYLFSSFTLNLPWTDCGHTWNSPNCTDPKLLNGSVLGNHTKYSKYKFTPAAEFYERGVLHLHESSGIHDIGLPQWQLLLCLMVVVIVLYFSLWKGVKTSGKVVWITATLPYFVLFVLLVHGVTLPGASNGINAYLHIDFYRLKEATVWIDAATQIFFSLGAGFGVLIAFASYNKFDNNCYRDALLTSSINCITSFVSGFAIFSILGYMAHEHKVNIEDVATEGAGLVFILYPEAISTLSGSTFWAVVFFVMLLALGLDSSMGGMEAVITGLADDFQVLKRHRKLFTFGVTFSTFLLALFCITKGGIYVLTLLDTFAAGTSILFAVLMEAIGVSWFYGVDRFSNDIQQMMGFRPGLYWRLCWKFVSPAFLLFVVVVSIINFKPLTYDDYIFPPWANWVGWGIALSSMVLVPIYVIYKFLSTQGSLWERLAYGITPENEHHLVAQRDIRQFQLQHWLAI
From the text: as §4

[7] = system: plasma binding proteins; test: fraction unbound in 100% plasma, human; type: in vitro ADME
From the text: as §1, §2

[8] = target: MAO-B (Homo sapiens, UniProt P27338); test: binding to monoamine oxidase B
MAO-B, sequence (P27338 whole entry, species assumed): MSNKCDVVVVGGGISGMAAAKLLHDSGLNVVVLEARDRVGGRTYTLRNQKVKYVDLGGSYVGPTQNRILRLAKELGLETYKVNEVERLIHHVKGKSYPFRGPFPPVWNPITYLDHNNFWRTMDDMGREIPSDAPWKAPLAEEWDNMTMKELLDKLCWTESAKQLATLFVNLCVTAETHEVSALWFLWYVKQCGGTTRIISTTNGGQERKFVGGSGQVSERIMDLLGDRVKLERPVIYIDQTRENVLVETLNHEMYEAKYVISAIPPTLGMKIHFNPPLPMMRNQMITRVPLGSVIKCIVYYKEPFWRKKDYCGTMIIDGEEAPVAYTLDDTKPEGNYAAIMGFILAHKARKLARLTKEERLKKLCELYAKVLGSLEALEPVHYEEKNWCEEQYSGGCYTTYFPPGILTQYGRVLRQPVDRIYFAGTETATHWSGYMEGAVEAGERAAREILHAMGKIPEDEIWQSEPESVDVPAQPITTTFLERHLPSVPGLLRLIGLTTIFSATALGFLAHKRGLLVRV
From the text: as §4

[9] = target: CYP2C9 (Homo sapiens, UniProt P11712); test: CYP inhibition assay, CYP2C9; type: in vitro ADME
CYP2C9, sequence (P11712 whole entry): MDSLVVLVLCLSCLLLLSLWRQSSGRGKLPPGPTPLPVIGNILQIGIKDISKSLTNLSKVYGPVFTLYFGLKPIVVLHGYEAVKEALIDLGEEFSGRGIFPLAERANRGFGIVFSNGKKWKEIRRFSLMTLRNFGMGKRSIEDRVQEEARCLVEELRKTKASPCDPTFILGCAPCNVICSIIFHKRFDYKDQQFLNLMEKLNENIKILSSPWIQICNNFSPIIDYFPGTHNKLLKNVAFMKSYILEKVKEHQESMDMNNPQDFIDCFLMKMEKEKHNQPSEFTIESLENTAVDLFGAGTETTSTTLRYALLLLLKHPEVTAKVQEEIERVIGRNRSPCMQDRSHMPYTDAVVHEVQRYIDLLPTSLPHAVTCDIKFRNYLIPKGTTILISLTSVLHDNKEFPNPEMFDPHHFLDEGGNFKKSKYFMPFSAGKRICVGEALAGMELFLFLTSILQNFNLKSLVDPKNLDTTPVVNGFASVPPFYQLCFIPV
From the text: as §3

[10] = target: T1, 5-HT1A (Homo sapiens, UniProt P08908); test: binding to 5-HT1A receptor
T1 sequence (P08908 1-422): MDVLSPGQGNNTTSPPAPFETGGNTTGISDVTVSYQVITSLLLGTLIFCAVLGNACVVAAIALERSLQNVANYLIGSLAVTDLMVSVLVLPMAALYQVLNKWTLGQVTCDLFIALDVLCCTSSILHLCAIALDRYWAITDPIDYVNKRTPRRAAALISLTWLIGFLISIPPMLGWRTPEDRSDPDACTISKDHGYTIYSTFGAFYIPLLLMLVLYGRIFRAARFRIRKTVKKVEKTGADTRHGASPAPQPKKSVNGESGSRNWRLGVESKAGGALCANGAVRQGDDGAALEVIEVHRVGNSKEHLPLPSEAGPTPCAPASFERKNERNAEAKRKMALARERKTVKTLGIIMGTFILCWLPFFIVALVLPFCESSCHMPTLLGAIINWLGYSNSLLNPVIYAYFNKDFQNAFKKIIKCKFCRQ
From the text: as §4

[11] = turbidimetric aqueous solubility; type: physicochemical
[12] = target: T2, CYP1A2 (Homo sapiens, UniProt P05177); test: CYP inhibition assay, CYP1A2; type: in vitro ADME
T2 sequence (P05177 1-516): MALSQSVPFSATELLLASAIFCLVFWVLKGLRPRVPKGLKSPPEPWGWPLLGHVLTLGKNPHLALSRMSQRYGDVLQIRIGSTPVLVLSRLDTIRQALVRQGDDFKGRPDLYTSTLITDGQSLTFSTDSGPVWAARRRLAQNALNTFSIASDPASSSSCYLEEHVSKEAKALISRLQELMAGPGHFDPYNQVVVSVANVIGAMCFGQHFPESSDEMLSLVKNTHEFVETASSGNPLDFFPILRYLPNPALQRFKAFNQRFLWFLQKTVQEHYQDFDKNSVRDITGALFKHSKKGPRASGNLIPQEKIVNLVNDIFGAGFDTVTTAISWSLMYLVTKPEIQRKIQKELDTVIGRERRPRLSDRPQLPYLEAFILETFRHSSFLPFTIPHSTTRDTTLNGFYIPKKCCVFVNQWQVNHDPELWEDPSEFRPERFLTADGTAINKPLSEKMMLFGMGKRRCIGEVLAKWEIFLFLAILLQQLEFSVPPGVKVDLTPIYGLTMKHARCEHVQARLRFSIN
From the text: as §3

[13] = target: T3, 5-HT2C (Homo sapiens, UniProt P28335); test: binding to 5-HT2C receptor
T3 sequence (P28335 33-458): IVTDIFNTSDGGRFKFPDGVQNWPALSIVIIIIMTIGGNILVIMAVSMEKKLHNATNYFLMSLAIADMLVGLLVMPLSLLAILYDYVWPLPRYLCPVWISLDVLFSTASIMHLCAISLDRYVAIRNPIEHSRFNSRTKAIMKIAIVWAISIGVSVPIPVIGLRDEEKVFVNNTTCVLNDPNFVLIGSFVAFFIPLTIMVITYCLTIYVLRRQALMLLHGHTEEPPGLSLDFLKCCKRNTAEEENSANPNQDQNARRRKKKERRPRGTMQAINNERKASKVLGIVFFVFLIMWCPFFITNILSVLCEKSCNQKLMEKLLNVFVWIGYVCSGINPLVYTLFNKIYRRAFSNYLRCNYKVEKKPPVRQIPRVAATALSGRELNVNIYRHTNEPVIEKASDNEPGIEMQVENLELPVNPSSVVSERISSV
From the text: as §4

[14] = target: 5-HT2B (Homo sapiens, UniProt P41595); test: binding to 5-HT2B receptor
5-HT2B, sequence (P41595 whole entry, species assumed): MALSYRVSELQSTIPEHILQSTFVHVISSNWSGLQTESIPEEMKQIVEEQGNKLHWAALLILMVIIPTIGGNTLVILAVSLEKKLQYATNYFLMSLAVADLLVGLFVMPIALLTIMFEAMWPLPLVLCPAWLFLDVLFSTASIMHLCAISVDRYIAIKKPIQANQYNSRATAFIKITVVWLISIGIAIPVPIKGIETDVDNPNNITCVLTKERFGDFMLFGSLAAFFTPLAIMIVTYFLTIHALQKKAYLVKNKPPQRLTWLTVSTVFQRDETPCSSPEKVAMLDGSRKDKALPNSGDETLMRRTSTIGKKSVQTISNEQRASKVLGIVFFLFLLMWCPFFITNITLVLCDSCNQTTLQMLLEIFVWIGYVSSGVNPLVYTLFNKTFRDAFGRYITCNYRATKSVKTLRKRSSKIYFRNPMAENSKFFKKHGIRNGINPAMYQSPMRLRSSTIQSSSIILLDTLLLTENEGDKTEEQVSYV
From the text: as §4

N[C@@]1(c2ccccc2Cl)CCC[C@@H](O)C1=O [2R,6R-hydroxynorketamine]
plasma protein binding (PPB), words [1]: low PPB
plasma protein binding (PPB), words [2]: low PPB
inhibition at 0.4 µM ([3]; 0.4 μM): 3.16%
inhibition at 1 µM ([3]; 1 μM): 6.65%
inhibition at 4 µM ([3]; 4 μM): 11.5%
inhibition at 10 µM ([3]; 10 μM): 9.41%
inhibition at 40 µM ([3]; 40 μM): 11.2%
inhibition at 100 µM ([3]; 100 μM): 5.73%
% Inhibition of Control Specific Binding [4]: 2%
% of Control Specific Binding [4]: 102.0%
compatibility with hydroxypropyl methylcellulose capsule shells [5]: compatibility
compatibility with dicalcium phosphate ([5]; DSC): compatibility
compatibility with microcrystalline cellulose ([5]; DSC): compatibility
compatibility with lactose monohydrate ([5]; DSC, binary mix, 1:2 ratio of API:Excipient): incompatible
% Inhibition of Control Specific Binding [6]: −16%
% of Control Specific Binding [6]: 117.6%
plasma protein binding (PPB), words [7]: low PPB
% Inhibition of Control Specific Binding [8]: −1%
% of Control Specific Binding [8]: 100.4%
inhibition of CYP2C9 [9]: did not inhibit
inhibition at 0.4 µM ([9]; human, 0.4 μM): 4.59%
inhibition at 1 µM ([9]; human, 1 μM): 5.92%
inhibition at 4 µM ([9]; human, 4 μM): 5.8%
inhibition at 10 µM ([9]; human, 10 μM): 11.9%
inhibition at 40 µM ([9]; human, 40 μM): -0.113%
inhibition at 100 µM ([9]; human, 100 μM): -1.33%
% Inhibition of Control Specific Binding [10]: 5%
% of Control Specific Binding [10]: 97.9%
binding to 5HT1A receptor subtype [10]: does not bind
estimated precipitation range lower bound [11]: 100 µM
estimated precipitation range upper bound [11]: > 100 µM
solubility [11]: high solubility
IC50 [12]: ~100 µM
inhibition at 0.4 µM ([12]; 0.4 μM): 7.55%
inhibition at 1 µM ([12]; 1 μM): 8.8%
inhibition at 4 µM ([12]; 4 μM): 11.7%
inhibition at 10 µM ([12]; 10 μM): 19.3%
inhibition at 40 µM ([12]; 40 μM): 24.8%
inhibition at 100 µM ([12]; 100 μM): 48.6%
% Inhibition of Control Specific Binding [13]: 10%
% of Control Specific Binding [13]: 91.1%
binding to 5HT2C receptor subtype [13]: does not bind
% Inhibition of Control Specific Binding [14]: 5%
% of Control Specific Binding [14]: 100.9%
binding to 5HT2B receptor subtype [14]: does not bind

Reference: patent US20190380978A1, “SOLID ORAL DOSAGE FORMS OF 2R,6R-HYDROXYNORKETAMINE OR DERIVATIVES THEREOF” (priority 2016, published 2019)
